Tests used:
Assay type in all cases: biochemical
Conditions in all cases: read-out: Activity of the protein kinase when treated with compound I-1 (% control)
[1] = target: MNK2 (Homo sapiens, UniProt Q9HBH9); assay: Protein kinase assay ([γ-32P] ATP), MNK2
Method: (§1) In another set of experiments, the activities of the compounds described herein against various protein kinases were determined according to the methods reported in Hastie et al., Nature Protocols, 2006, 1, 968-971.
(§2) Enzyme dilution buffer. This buffer consisted of 50 mM Tris-HCl, pH 7.5, 0.1 mM EGTA, 1 mg ml^−1 bovine serum albumin and 0.1% (vol/vol) 2-mercaptoethanol.
(§3) 10× concentrated assay buffer. An assay buffer of 500 mM Tris-HCl, pH 7.5, 1 mM EGTA, and 100 mM magnesium acetate was used for assay of a wide variety of protein kinases. In some experiments, other cofactors were included (e.g., calcium ions and calmodulin were included for assay of calcium-calmodulindependent protein kinases).
(§4) 1 mM [γ-^32P] ATP. The specific activity of the [γ-^32P] ATP solution was 1×10^5 to 1×10^6 c.p.m. per nmol depending on what was needed to produce an optimal signal/noise ratio. […] To measure the concentration of ATP, a sample of such a stock solution was diluted to 20 μM, and the absorbance of the diluted sample was measured at 259 nm. The absorbance of a 20-μM stock solution of ATP at 259 nm was about 0.31. […] ATP to produce a radioactivity of 1×10^5 to 1×10^6 c.p.m. per nmol. […]
(§5) 13) Measure radioactivity in the samples by Cerenkov counting (e.g., without liquid scintillation fluid) in a liquid scintillation counter using a “^32P program”. […]

[2] = target: EPH-B4 (Homo sapiens, UniProt P54760); assay: Protein kinase assay ([γ-32P] ATP), EPH-B4
Chain of EPH-B4 (P54760 16-987): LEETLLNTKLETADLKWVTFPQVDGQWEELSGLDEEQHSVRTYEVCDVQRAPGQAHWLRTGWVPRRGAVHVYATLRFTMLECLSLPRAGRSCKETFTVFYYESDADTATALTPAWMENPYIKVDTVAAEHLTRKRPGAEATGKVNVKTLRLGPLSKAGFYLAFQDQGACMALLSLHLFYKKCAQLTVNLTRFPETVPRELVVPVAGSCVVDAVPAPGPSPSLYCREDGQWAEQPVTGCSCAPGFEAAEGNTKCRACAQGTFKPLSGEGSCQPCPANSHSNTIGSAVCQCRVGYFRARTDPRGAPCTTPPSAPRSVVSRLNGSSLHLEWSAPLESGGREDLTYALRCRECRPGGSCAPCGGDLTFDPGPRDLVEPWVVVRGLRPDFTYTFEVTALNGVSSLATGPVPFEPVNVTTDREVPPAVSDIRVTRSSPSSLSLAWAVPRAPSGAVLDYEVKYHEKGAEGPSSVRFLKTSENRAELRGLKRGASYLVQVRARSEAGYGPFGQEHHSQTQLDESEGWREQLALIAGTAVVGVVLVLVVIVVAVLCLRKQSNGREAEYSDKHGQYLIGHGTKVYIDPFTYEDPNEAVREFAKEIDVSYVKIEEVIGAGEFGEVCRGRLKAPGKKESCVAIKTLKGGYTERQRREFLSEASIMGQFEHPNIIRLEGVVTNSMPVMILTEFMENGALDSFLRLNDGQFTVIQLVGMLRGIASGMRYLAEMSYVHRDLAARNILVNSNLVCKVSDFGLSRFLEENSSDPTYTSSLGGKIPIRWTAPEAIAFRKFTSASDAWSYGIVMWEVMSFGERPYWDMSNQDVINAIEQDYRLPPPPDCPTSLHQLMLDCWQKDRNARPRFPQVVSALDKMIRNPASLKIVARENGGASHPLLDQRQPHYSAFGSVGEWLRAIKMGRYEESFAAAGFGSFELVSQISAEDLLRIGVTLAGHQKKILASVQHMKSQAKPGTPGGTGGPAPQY
Method: as §1, §2, §3, §4, §5

[3] = target: PAK2 (Homo sapiens, UniProt Q13177); assay: Protein kinase assay ([γ-32P] ATP), PAK2
Chain of PAK2 (Q13177 whole entry): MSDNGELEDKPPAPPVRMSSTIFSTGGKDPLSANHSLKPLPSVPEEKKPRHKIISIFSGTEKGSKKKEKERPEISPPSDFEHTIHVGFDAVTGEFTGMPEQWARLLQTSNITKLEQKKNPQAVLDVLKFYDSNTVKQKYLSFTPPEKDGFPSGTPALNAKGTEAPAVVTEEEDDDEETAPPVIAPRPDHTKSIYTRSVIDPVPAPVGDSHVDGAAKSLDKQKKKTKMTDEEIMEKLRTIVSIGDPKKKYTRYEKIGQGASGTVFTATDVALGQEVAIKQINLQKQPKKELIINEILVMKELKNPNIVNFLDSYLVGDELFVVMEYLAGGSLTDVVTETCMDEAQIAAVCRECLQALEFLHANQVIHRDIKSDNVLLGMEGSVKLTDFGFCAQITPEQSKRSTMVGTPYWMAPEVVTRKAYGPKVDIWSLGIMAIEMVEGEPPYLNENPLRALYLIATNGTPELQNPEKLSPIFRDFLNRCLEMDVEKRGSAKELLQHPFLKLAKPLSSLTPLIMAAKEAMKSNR
Method: as §1, §2, §3, §4, §5

[4] = target: WNK1 (Homo sapiens, UniProt Q9H4A3); assay: Protein kinase assay ([γ-32P] ATP), WNK1
Method: as §1, §2, §3, §4, §5

[5] = target: MST4 (Homo sapiens, UniProt Q9P289); assay: Protein kinase assay ([γ-32P] ATP), MST4
Method: as §1, §2, §3, §4, §5

[6] = target: CLK2 (Homo sapiens, UniProt P49760); assay: Protein kinase assay ([γ-32P] ATP), CLK2
Chain of CLK2 (P49760 whole entry): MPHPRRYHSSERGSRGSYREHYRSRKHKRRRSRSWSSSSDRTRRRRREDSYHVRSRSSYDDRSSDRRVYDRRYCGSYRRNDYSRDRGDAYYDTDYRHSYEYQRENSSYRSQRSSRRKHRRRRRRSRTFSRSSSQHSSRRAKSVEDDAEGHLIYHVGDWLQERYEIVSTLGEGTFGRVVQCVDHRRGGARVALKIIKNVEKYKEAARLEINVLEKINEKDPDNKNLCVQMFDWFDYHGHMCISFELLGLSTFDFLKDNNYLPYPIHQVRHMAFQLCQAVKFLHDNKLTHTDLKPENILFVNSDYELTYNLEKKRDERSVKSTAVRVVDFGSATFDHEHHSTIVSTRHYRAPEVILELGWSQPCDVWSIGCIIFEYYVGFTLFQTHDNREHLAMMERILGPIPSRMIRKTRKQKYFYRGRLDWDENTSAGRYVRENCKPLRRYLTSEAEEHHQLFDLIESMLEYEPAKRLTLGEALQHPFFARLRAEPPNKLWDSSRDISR
Method: as §1, §2, §3, §4, §5

[7] = target: IRAK4 (Homo sapiens, UniProt Q9NWZ3); assay: Protein kinase assay ([γ-32P] ATP), IRAK4
Method: as §1, §2, §3, §4, §5

[8] = target: IR (Homo sapiens, UniProt P06213); assay: Protein kinase assay ([γ-32P] ATP), IR
Method: as §1, §2, §3, §4, §5

[9] = target: ERK8 (Homo sapiens, UniProt Q8TD08); assay: Protein kinase assay ([γ-32P] ATP), ERK8
Chain of ERK8 (Q8TD08 whole entry): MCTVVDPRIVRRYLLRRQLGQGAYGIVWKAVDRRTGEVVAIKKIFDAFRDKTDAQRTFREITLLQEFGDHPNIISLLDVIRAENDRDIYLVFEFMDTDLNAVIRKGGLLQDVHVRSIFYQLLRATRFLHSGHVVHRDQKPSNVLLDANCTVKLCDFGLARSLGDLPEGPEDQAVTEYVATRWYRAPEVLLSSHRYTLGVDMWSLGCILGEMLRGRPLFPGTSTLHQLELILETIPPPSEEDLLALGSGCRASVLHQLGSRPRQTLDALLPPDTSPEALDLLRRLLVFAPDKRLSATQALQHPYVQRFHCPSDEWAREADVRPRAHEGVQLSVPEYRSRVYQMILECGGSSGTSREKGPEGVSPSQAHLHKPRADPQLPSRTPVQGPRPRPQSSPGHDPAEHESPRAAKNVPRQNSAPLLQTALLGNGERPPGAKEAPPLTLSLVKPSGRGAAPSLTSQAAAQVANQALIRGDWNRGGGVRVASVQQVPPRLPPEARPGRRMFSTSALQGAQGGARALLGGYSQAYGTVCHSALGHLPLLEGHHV
Method: as §1, §2, §3, §4, §5

[10] = target: PKA (Homo sapiens, UniProt P17612); assay: Protein kinase assay ([γ-32P] ATP), PKA
Method: as §1, §2, §3, §4, §5

[11] = target: HIPK2 (Homo sapiens, UniProt Q9H2X6); assay: Protein kinase assay ([γ-32P] ATP), HIPK2
Chain of HIPK2 (Q9H2X6 whole entry): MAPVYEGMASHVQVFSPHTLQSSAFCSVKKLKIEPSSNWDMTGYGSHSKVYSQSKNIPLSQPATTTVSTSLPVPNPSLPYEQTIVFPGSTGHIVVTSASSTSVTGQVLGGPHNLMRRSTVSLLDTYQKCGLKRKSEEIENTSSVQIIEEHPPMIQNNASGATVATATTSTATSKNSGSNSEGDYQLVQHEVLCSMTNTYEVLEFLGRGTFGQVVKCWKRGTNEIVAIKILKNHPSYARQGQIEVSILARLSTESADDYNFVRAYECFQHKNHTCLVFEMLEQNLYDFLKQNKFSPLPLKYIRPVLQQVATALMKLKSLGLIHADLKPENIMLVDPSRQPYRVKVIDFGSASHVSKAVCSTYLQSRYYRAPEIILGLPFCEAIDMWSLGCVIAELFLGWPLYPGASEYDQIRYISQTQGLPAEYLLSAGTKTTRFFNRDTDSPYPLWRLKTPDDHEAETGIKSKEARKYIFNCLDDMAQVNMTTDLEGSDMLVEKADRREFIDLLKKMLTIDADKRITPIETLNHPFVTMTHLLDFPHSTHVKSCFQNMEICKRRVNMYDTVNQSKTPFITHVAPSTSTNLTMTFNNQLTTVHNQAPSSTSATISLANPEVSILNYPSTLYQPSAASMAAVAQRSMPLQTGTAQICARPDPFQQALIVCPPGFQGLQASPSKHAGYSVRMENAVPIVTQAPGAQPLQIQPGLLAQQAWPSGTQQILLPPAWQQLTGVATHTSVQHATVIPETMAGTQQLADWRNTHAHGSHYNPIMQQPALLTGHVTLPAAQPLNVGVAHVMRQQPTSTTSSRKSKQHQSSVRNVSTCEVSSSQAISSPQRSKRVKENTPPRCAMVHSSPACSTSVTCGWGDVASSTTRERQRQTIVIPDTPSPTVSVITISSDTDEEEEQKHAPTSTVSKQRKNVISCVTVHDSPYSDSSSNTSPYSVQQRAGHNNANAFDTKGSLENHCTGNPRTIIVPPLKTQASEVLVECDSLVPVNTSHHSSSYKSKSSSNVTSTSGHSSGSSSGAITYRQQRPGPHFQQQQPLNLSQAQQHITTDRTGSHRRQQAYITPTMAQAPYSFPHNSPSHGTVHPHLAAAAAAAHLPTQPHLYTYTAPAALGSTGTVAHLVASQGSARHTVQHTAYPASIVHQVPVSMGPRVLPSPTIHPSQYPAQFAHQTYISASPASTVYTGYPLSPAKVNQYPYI
Method: as §1, §2, §3, §4, §5

[12] = target: CHK2 (Homo sapiens, UniProt O96017); assay: Protein kinase assay ([γ-32P] ATP), CHK2
Method: as §1, §2, §3, §4, §5

[13] = target: p38g MAPK (Homo sapiens, UniProt P53778); assay: Protein kinase assay ([γ-32P] ATP), p38g MAPK
Method: as §1, §2, §3, §4, §5

[14] = target: NEK6 (Homo sapiens, UniProt Q9HC98); assay: Protein kinase assay ([γ-32P] ATP), NEK6
Method: as §1, §2, §3, §4, §5

[15] = target: Lck (Homo sapiens, UniProt P06239); assay: Protein kinase assay ([γ-32P] ATP), Lck
Method: as §1, §2, §3, §4, §5

[16] = target: TBK1 (Homo sapiens, UniProt Q9UHD2); assay: Protein kinase assay ([γ-32P] ATP), TBK1
Method: as §1, §2, §3, §4, §5

[17] = target: RSK2 (Homo sapiens, UniProt P51812); assay: Protein kinase assay ([γ-32P] ATP), RSK2
Chain of RSK2 (P51812 whole entry, species assumed): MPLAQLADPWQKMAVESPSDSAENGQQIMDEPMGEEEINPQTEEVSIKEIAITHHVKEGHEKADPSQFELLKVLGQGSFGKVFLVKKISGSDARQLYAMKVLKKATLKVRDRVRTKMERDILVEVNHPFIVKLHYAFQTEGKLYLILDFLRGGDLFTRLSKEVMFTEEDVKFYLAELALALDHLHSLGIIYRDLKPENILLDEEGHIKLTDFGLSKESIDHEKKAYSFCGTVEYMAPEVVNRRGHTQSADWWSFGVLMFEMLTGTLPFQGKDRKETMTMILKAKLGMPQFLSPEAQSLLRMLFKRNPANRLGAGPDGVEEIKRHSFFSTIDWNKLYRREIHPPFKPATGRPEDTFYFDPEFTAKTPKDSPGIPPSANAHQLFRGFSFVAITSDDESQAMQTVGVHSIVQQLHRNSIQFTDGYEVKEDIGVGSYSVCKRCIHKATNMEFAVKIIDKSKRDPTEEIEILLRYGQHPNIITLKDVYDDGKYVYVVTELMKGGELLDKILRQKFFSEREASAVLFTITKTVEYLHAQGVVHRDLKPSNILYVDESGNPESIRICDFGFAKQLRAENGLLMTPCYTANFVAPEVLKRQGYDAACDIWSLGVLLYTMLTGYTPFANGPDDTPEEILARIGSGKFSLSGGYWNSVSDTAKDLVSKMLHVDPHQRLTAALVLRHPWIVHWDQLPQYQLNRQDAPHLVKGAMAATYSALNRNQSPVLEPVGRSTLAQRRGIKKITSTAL
Method: as §1, §2, §3, §4, §5

[18] = 0.1 μM of compound I-1, DMSO control = 100%
[19] = 1 μM of compound I-1, DMSO control = 100%

Chain of MNK2 (Q9HBH9 whole entry): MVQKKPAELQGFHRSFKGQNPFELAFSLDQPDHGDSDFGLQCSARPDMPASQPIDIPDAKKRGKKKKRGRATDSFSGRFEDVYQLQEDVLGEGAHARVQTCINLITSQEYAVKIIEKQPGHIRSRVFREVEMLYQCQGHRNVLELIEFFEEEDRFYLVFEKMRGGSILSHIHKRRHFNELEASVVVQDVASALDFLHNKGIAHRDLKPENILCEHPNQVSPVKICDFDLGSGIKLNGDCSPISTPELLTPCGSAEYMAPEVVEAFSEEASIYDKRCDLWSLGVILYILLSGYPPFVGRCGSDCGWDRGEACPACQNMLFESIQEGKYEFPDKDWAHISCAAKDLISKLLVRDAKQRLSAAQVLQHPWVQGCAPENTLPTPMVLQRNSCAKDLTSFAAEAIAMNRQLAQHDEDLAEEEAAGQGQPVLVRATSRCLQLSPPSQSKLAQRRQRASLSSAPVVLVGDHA

Work on Cc1cccc(C)c1NC(=O)N1C/C=C\COc2cccc(c2)Nc2cc1ncn2 [Compound I-1] yielded a remaining activity at 0.1 µM [1, 18] of 104%, a remaining activity at 1 µM [1, 19] of 108% and a remaining activity at 0.1 µM [2, 18] of 55%. The remaining activity at 1 µM [2, 19] was 4%, the remaining activity at 0.1 µM [3, 18] was 100% and the remaining activity at 1 µM [3, 19] was 77%. For the same compound, the remaining activity at 0.1 µM [4, 18] was 102%, the remaining activity at 1 µM [4, 19] was 85% and the remaining activity at 0.1 µM [5, 18] was 133%. The remaining activity at 1 µM [5, 19] was 81%, the remaining activity at 0.1 µM [6, 18] was 100% and the remaining activity at 1 µM [6, 19] was 90%. The remaining activity at 0.1 µM [7, 18] was 92%, the remaining activity at 1 µM [7, 19] was 86% and the remaining activity at 0.1 µM [8, 18] was 102%. The remaining activity at 1 µM [8, 19] was 93%, the remaining activity at 0.1 µM [9, 18] was 99% and the remaining activity at 1 µM [9, 19] was 72%. For the same compound, the remaining activity at 0.1 µM [10, 18] was 105%, the remaining activity at 1 µM [10, 19] was 88% and the remaining activity at 0.1 µM [11, 18] was 110%. The remaining activity at 1 µM [11, 19] was 91%, the remaining activity at 0.1 µM [12, 18] was 107% and the remaining activity at 1 µM [12, 19] was 72%. The remaining activity at 0.1 µM [13, 18] was 101%, the remaining activity at 1 µM [13, 19] was 88% and the remaining activity at 0.1 µM [14, 18] was 91%. It also gave a remaining activity at 1 µM [14, 19] of 87%, a remaining activity at 0.1 µM [15, 18] of 4% and a remaining activity at 1 µM [15, 19] of 3%. For the same compound, the remaining activity at 0.1 µM [16, 18] was 109%, the remaining activity at 1 µM [16, 19] was 83% and the remaining activity at 0.1 µM [17, 18] was 98%. It also gave a remaining activity at 1 µM [17, 19] of 81%.

Source: patent publication US10457691B2, “Macrocyclic kinase inhibitors and uses thereof” (Dana-Farber Cancer Institute, Inc., priority 2014, dated 2019)
